# Measurements: patent US6355799B1, “Substituted benzene compounds, process for their preparation, and herbicidal and defoliant compositions containing them” (ISK Americas Incorporated, priority 1997, dated 2002)
# How the values were obtained:
# Format in all cases: in vivo
# [1] = tested on: lambsquarters (Chenopodium album, CHEAL); experiment: Post-emerge test, greenhouse herbicide activity screening; settings: post-emerge, 14 days after application, rating scale 0-100
# Outline: (§1)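 Visual ratings on a 0-100 scale (0 no damage, 100 all plants dead) were taken at 14 days after treatment. Rates of 15-1000 g ai/ha in acetone, 187 l/ha, were sprayed onto soil one day after planting (pre-emerge) or onto 2-3 leaf plants with 0.25% v/v surfactant (post-emerge).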
# [2] = tested on: johnsongrass (Sorghum halepense, SORHA); experiment: as above; settings: post-emerge, 14 days after application, rating scale 0-100
# Outline: as §1
# [3] = tested on: sicklepod (Cassia obtusifolia, CASOB); experiment: as above; settings: post-emerge, 14 days after application, rating scale 0-100
# Outline: as §1
# [4] = tested on: velvetleaf (Abutilon theophrasti, ABUTH); experiment: as above; settings: post-emerge, 14 days after application, rating scale 0-100
# Outline: as §1
# [5] = tested on: redroot pigweed (Amaranthus retroflexus, AMARE); experiment: as above; settings: post-emerge, 14 days after application
# Outline: as §1
# [6] = tested on: barnyardgrass (Echinochloa crus-galli, ECHCG); experiment: as above; settings: post-emerge, 14 days after application, rating scale 0-100
# Outline: as §1
# [7] = tested on: ivyleaf morningglory (Ipomoea hederacea, IPOHE); experiment: as above; settings: post-emerge, 14 days after application, rating scale 0-100
# Outline: as §1
# [8] = tested on: green foxtail (Setaria viridis, SETVI); experiment: as above; settings: post-emerge, 14 days after application, rating scale 0-100
# Outline: as §1
# [9] = tested on: large crabgrass (Digitaria sanguinalis, DIGSA); experiment: as above; settings: post-emerge, 14 days after application, rating scale 0-100
# Outline: as §1
# [10] = tested on: redroot pigweed (Amaranthus retroflexus, AMARE); experiment: Pre-emerge test, greenhouse herbicide activity screening; settings: for Pre-emerge Herbicidal Activity, phytotoxicity rating (0-100), AMARE: rated 14 days after application, 0 = no damage, 100 = complete death; for Pre-emerge Herbicidal Activity AMARE: phytotoxicity rating 0-100, 14 days after application
# Outline: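 Rating: 0–100 visual injury, 14 DAA. Application: acetone, 187 l/ha, 15–1000 g ai/ha, flat-fan track sprayer with nozzle 40–45 cm above soil or canopy. Post-emerge runs used 0.25% v/v surfactant on 2–3 leaf plants.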
# [11] = tested on: lambsquarters (Chenopodium album, CHEAL); experiment: as above; settings: for Pre-emerge Herbicidal Activity, phytotoxicity rating (0-100), CHEAL: rated 14 days after application, 0 = no damage, 100 = complete death; for Pre-emerge Herbicidal Activity CHEAL: phytotoxicity rating 0-100, 14 days after application
# Outline: (§2)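 Compounds in acetone were track-sprayed at 187 l/ha, 15–1000 g ai/ha, onto sandy loam pots. Pre-emerge seeds were sown one day before spraying, with surface watering afterwards. Post-emerge plants were at the 2–3 leaf stage and sprayed with 0.25% v/v non-ionic surfactant. Injury was rated 0–100 at 14 days.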
# [12] = tested on: johnsongrass (Sorghum halepense, SORHA); experiment: as above; settings: rated 14 days after application, 0 = no damage, 100 = complete death
# Outline: as §2
# [13] = tested on: sicklepod (Cassia obtusifolia, CASOB); experiment: as above; settings: for Pre-emerge Herbicidal Activity, phytotoxicity rating (0-100), CASOB: rated 14 days after application, 0 = no damage, 100 = complete death; for Pre-emerge Herbicidal Activity CASOB: phytotoxicity rating 0-100, 14 days after application
# Outline: as §2
# [14] = tested on: velvetleaf (Abutilon theophrasti, ABUTH); experiment: as above; settings: for Pre-emerge Herbicidal Activity, phytotoxicity rating (0-100), ABUTH: rated 14 days after application, 0 = no damage, 100 = complete death; for Pre-emerge Herbicidal Activity ABUTH: phytotoxicity rating 0-100, 14 days after application
# Outline: as §2
# [15] = tested on: barnyardgrass (Echinochloa crus-galli, ECHCG); experiment: as above; settings: for Pre-emerge Herbicidal Activity, phytotoxicity rating (0-100), ECHCG: rated 14 days after application, 0 = no damage, 100 = complete death; for Pre-emerge Herbicidal Activity ECHCG: phytotoxicity rating 0-100, 14 days after application
# Outline: as §2
# [16] = tested on: ivyleaf morningglory (Ipomoea hederacea, IPOHE); experiment: as above; settings: for Pre-emerge Herbicidal Activity, phytotoxicity rating (0-100), IPOHE: rated 14 days after application, 0 = no damage, 100 = complete death; for Pre-emerge Herbicidal Activity IPOHE: phytotoxicity rating 0-100, 14 days after application
# Outline: as §2
# [17] = tested on: green foxtail (Setaria viridis, SETVI); experiment: as above; settings: for Pre-emerge Herbicidal Activity, phytotoxicity rating (0-100), SETVI: rated 14 days after application, 0 = no damage, 100 = complete death; for Pre-emerge Herbicidal Activity SETVI: phytotoxicity rating 0-100, 14 days after application
# Outline: as §2
# [18] = tested on: large crabgrass (Digitaria sanguinalis, DIGSA); experiment: as above; settings: for Pre-emerge Herbicidal Activity, phytotoxicity rating (0-100), DIGSA: rated 14 days after application, 0 = no damage, 100 = complete death; for Pre-emerge Herbicidal Activity DIGSA: phytotoxicity rating 0-100, 14 days after application
# Outline: as §2
# [19] = tested on: upland rice (Oryza sp., var. Tebonnet, RICE); experiment: Post-emerge test, crop safety; settings: post-emerge, 14 days after application, rating scale 0-100
# Outline: as §2
# [20] = tested on: field corn (Zea mays L., var. Dekalb 535, CORN); experiment: Post-emerge test, crop safety; settings: post-emerge, 14 days after application, rating scale 0-100
# Outline: as §2
# [21] = tested on: upland rice (Oryza sp., var. Tebonnet, RICE); experiment: Pre-emerge test, crop safety; settings: crop damage rating 0-100, 14 days after application
# Outline: (§3)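 Sandy loam pots; pre-emerge: sown 1 d pre-spray, surface-watered after, then bottom-watered. Post-emerge: sown 8–21 d before, 2–3 leaf stage, + 0.25% v/v NIS, bottom-watered. Acetone, 187 l/ha track spray, 15–1000 g ai/ha. 0–100 injury score, day 14.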
# [22] = tested on: field corn (Zea mays L., var. Dekalb 535, CORN); experiment: Pre-emerge test, crop safety; settings: crop damage rating 0-100, 14 days after application
# Outline: as §3
# [23] = 250 g ai/ha, rating scale 0-100
structure (smiles),measurement,setting,value
"Cn1c(C(F)(F)F)cc(=O)n(-c2c(F)cc(Cl)c(OC(F)F)c2NC(=O)c2ccc3ccccc3c2)c1=O [Compound 2-115, 3-[4-chloro-3-difluoromethoxy-6-fluoro-2-(2-naphthoylamino)phenyl]-1-methyl-6-trifluoromethyl-2,4(1H, 3H)-pyrimidinedione]",phytotoxicity rating CHEAL,[1]; 63 g ai/ha,100
same,phytotoxicity rating CHEAL,[1]; 250 g ai/ha,100
same,phytotoxicity rating SORHA,[2]; 63 g ai/ha,0
same,phytotoxicity rating SORHA,[2]; 250 g ai/ha,0
same,phytotoxicity rating CASOB,[3]; 63 g ai/ha,90
same,phytotoxicity rating CASOB,[3]; 250 g ai/ha,95
same,phytotoxicity rating ABUTH,[4]; 63 g ai/ha,100
same,phytotoxicity rating ABUTH,[4]; 250 g ai/ha,100
same,phytotoxicity rating AMARE,"[5]; 63 g ai/ha, rating scale 0-100",100
same,phytotoxicity rating AMARE,[5]; [23],100
same,phytotoxicity rating ECHCG,[6]; 63 g ai/ha,10
same,phytotoxicity rating ECHCG,[6]; 250 g ai/ha,20
same,phytotoxicity rating IPOHE,[7]; 63 g ai/ha,90
same,phytotoxicity rating IPOHE,[7]; 250 g ai/ha,95
same,phytotoxicity rating SETVI,[8]; 63 g ai/ha,0
same,phytotoxicity rating SETVI,[8]; 250 g ai/ha,0
same,phytotoxicity rating DIGSA,[9]; 63 g ai/ha,20
same,phytotoxicity rating DIGSA,[9]; 250 g ai/ha,50
same,"Pre-emerge Herbicidal Activity, phytotoxicity rating (0-100), AMARE",[10]; 63 g ai/ha,100
same,"Pre-emerge Herbicidal Activity, phytotoxicity rating (0-100), AMARE",[10]; 125 g ai/ha,100
same,"Pre-emerge Herbicidal Activity, phytotoxicity rating (0-100), CHEAL",[11]; 63 g ai/ha,100
same,"Pre-emerge Herbicidal Activity, phytotoxicity rating (0-100), CHEAL",[11]; 125 g ai/ha,100
same,"Pre-emerge Herbicidal Activity, phytotoxicity rating (0-100), SORHA",[12]; 63 g ai/ha,20
same,"Pre-emerge Herbicidal Activity, phytotoxicity rating (0-100), SORHA",[12]; 125 g ai/ha,30
same,"Pre-emerge Herbicidal Activity, phytotoxicity rating (0-100), CASOB",[13]; 63 g ai/ha,20
same,"Pre-emerge Herbicidal Activity, phytotoxicity rating (0-100), CASOB",[13]; 125 g ai/ha,80
same,"Pre-emerge Herbicidal Activity, phytotoxicity rating (0-100), ABUTH",[14]; 63 g ai/ha,100
same,"Pre-emerge Herbicidal Activity, phytotoxicity rating (0-100), ABUTH",[14]; 125 g ai/ha,100
same,"Pre-emerge Herbicidal Activity, phytotoxicity rating (0-100), ECHCG",[15]; 63 g ai/ha,80
same,"Pre-emerge Herbicidal Activity, phytotoxicity rating (0-100), ECHCG",[15]; 125 g ai/ha,95
same,"Pre-emerge Herbicidal Activity, phytotoxicity rating (0-100), IPOHE",[16]; 63 g ai/ha,0
same,"Pre-emerge Herbicidal Activity, phytotoxicity rating (0-100), IPOHE",[16]; 125 g ai/ha,90
same,"Pre-emerge Herbicidal Activity, phytotoxicity rating (0-100), SETVI",[17]; 63 g ai/ha,90
same,"Pre-emerge Herbicidal Activity, phytotoxicity rating (0-100), SETVI",[17]; 125 g ai/ha,99
same,"Pre-emerge Herbicidal Activity, phytotoxicity rating (0-100), DIGSA",[18]; 63 g ai/ha,90
same,"Pre-emerge Herbicidal Activity, phytotoxicity rating (0-100), DIGSA",[18]; 125 g ai/ha,100
COc1c(Cl)cc(F)c(-n2c(=O)cc(C(F)(F)F)n(C)c2=O)c1NC(=O)OCc1cc(C)cc(C)c1 [4-37],phytotoxicity rating RICE (crop damage),[19]; 63 g ai/ha,10
same,phytotoxicity rating RICE (crop damage),[19]; 250 g ai/ha,60
same,phytotoxicity rating CORN (crop damage),[20]; 63 g ai/ha,20
same,phytotoxicity rating CORN (crop damage),[20]; 250 g ai/ha,60
same,phytotoxicity rating CHEAL,[1]; 63 g ai/ha,100
same,phytotoxicity rating CHEAL,[1]; 250 g ai/ha,100
same,phytotoxicity rating SORHA,[2]; 63 g ai/ha,40
same,phytotoxicity rating SORHA,[2]; 250 g ai/ha,60
same,phytotoxicity rating CASOB,[3]; 63 g ai/ha,90
same,phytotoxicity rating CASOB,[3]; 250 g ai/ha,100
same,phytotoxicity rating ABUTH,[4]; 63 g ai/ha,100
same,phytotoxicity rating ABUTH,[4]; 250 g ai/ha,100
same,phytotoxicity rating AMARE,"[5]; 63 g ai/ha, rating scale 0-100 (0 no damage, 100 complete death)",100
same,phytotoxicity rating AMARE,[5]; [23],100
same,phytotoxicity rating ECHCG,[6]; 63 g ai/ha,20
same,phytotoxicity rating ECHCG,[6]; 250 g ai/ha,60
same,phytotoxicity rating IPOHE,[7]; 63 g ai/ha,100
same,phytotoxicity rating IPOHE,[7]; 250 g ai/ha,100
same,phytotoxicity rating SETVI,[8]; 63 g ai/ha,90
same,phytotoxicity rating SETVI,[8]; 250 g ai/ha,90
same,phytotoxicity rating DIGSA,[9]; 63 g ai/ha,50
same,phytotoxicity rating DIGSA,[9]; 250 g ai/ha,70
same,Pre-emerge Herbicidal Activity AMARE,[10]; 63 g ai/ha,100
same,Pre-emerge Herbicidal Activity AMARE,[10]; 250 g ai/ha,100
same,Pre-emerge Herbicidal Activity CHEAL,[11]; 63 g ai/ha,100
same,Pre-emerge Herbicidal Activity CHEAL,[11]; 250 g ai/ha,100
same,Pre-emerge Herbicidal Activity CASOB,[13]; 63 g ai/ha,30
same,Pre-emerge Herbicidal Activity CASOB,[13]; 250 g ai/ha,40
same,Pre-emerge Herbicidal Activity ABUTH,[14]; 63 g ai/ha,100
same,Pre-emerge Herbicidal Activity ABUTH,[14]; 250 g ai/ha,90
same,Pre-emerge Herbicidal Activity ECHCG,[15]; 63 g ai/ha,10
same,Pre-emerge Herbicidal Activity ECHCG,[15]; 250 g ai/ha,60
same,Pre-emerge Herbicidal Activity IPOHE,[16]; 63 g ai/ha,30
same,Pre-emerge Herbicidal Activity IPOHE,[16]; 250 g ai/ha,50
same,Pre-emerge Herbicidal Activity SETVI,[17]; 63 g ai/ha,90
same,Pre-emerge Herbicidal Activity SETVI,[17]; 250 g ai/ha,100
same,Pre-emerge Herbicidal Activity DIGSA,[18]; 63 g ai/ha,60
same,Pre-emerge Herbicidal Activity DIGSA,[18]; 250 g ai/ha,90
same,Pre-emerge Herbicidal Activity RICE,[21]; 63 g ai/ha,10
same,Pre-emerge Herbicidal Activity RICE,[21]; 250 g ai/ha,30
same,Pre-emerge Herbicidal Activity CORN,[22]; 63 g ai/ha,0
same,Pre-emerge Herbicidal Activity CORN,[22]; 250 g ai/ha,0
